This experiment addresses Endothelial PAS domain-containing protein 1 (Homo sapiens, UniProt Q99814).

Usually pEC50 stands for −log10 of the EC50, conventionally taken in molar units. High values mean a low EC50, low ones a high EC50.

pEC50: −log10 of the molar value.

Endothelial PAS domain-containing protein 1, sequence (Q99814 whole entry, the tested form may be a part): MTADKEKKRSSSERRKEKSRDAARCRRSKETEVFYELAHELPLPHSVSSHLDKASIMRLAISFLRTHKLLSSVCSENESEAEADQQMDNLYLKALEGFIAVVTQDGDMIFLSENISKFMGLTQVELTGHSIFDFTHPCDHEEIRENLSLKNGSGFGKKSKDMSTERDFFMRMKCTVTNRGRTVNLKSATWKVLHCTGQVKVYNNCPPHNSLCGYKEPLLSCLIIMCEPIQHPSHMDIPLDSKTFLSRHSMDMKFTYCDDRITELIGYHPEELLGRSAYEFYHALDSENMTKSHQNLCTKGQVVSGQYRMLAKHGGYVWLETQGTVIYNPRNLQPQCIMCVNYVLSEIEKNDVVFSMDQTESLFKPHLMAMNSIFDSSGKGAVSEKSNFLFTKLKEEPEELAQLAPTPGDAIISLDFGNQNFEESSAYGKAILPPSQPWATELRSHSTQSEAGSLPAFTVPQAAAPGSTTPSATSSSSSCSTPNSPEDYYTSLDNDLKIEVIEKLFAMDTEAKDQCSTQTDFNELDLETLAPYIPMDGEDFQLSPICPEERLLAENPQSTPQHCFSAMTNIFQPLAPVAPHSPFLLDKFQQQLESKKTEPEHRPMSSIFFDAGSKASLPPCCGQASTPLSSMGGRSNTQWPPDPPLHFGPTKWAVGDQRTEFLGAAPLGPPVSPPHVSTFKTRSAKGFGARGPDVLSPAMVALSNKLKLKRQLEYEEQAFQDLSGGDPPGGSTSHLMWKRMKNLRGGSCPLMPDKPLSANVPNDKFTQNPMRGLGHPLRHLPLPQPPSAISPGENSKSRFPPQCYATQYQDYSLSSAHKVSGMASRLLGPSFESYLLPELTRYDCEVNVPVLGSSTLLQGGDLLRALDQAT
Description: Agonist activity at HIF-2alpha (unknown origin) expressed in 786-O cells measured after 24 hrs by HRE based luciferase reporter gene assay

The molecule `Clc1cc(Cl)cc(Nc2nsc3ccccc23)c1` gave a negative logarithm of the EC50 (pEC50) of 5.53.

For the origin of these results see ChEMBL document CHEMBL4831546, “Discovery of a Potent and Orally Bioavailable Hypoxia-Inducible Factor 2α (HIF-2α) Agonist and Its Synergistic Therapy with Prolyl Hydroxylase Inhibitors for the Treatment of Renal Anemia” (J Med Chem, 2021).
